Measured values from ChEMBL document CHEMBL1147500, “A prodrug approach to COX-2 inhibitors with methylsulfone” (Bioorg Med Chem Lett, 2004).

Legend:
Rattus norvegicus [1] = test: Inhibition of adjuvant-induced arthritis (AA) in SD rats upon peroral administration (BID) at 0.1 mg/kg/day; type: functional; details: route oral
Rattus norvegicus [2] = test: Inhibition of adjuvant-induced arthritis (AA) in SD rats upon peroral administration (BID) at 0.3 mg/kg/day; type: functional; details: route oral
Rattus norvegicus [3] = test: Effective dose against adjuvant-induced arthritis (AA) in male lewis rats upon peroral administration (bid); type: functional; details: po
[4] = Area under curve (0-24 hr) at a dose of 10 mg/kg in male SD rats; type: ADME, organism-based; set-up: time < 24 hr, dose 10 mg/kg; details: rat, in vivo
[5] = Tmax value at a dose of 10 mg/kg in male SD rats; type: ADME, organism-based; set-up: dose 10 mg/kg; details: rat, in vivo
[6] = Cmax value at a dose of 10 mg/kg in male SD rats; type: ADME, organism-based; set-up: dose 10 mg/kg; details: rat, in vivo
[7] = Cmax upon oral administration in male Beagle dog at 10 mg/kg; type: ADME, organism-based, Canis lupus familiaris; set-up: dose 10 mg/kg, route oral; details: in vivo
[8] = Area under curve (0-24 hr) at a dose of 50 mg/kg in male SD rats; type: ADME, organism-based; set-up: time < 24 hr, dose 50 mg/kg; details: rat, in vivo
[9] = biological target: T1, Prostaglandin G/H synthase 1 (Mus musculus, UniProt P22437); test: Inhibitory concentration against prostaglandin G/H synthase 1 in mouse peritoneal macrophages
T1 sequence (P22437 whole entry): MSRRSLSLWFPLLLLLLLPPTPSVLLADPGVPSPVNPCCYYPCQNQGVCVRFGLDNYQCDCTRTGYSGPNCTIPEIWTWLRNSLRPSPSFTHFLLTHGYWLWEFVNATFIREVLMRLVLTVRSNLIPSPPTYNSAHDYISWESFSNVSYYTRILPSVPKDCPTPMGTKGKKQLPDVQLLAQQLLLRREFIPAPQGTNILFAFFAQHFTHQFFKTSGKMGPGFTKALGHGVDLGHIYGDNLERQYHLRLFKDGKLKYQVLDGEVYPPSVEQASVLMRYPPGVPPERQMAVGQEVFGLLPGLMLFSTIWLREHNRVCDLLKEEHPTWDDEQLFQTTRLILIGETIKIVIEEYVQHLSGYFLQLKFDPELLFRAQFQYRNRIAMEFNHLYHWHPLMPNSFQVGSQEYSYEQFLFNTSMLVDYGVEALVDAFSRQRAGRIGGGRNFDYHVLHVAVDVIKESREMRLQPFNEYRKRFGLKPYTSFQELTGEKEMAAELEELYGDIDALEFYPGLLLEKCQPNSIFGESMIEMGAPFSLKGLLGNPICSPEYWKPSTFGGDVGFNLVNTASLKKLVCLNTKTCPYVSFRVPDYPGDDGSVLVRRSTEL

[10] = Cmax value at a dose of 50 mg/kg in male SD rats; type: ADME, organism-based; set-up: dose 50 mg/kg; details: rat, in vivo
[11] = Cmax value at a dose of 100 mg/kg in male SD rats; type: ADME, organism-based; set-up: dose 100 mg/kg; details: rat, in vivo
[12] = biological target: T2, Prostaglandin G/H synthase 2 (Mus musculus, UniProt Q05769); test: Inhibitory concentration against prostaglandin G/H synthase 2 in mouse peritoneal macrophages
T2 sequence (Q05769 whole entry): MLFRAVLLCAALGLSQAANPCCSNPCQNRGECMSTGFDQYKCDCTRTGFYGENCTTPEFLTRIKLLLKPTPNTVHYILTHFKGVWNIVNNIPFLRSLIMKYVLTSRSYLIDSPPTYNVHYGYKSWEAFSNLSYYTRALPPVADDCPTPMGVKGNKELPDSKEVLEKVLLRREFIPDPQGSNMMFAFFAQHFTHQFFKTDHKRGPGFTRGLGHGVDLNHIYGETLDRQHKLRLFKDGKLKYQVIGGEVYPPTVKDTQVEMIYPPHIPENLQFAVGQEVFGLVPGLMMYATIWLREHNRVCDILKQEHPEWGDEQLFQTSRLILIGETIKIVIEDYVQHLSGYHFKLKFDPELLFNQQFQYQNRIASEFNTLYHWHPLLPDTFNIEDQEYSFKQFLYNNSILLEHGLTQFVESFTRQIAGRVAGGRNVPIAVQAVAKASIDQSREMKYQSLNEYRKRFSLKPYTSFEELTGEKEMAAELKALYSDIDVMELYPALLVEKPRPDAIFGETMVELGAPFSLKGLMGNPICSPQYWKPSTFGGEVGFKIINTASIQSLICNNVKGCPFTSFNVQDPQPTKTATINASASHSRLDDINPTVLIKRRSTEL

[13] = Tmax value at a dose of 50 mg/kg in male SD rats; type: ADME, organism-based; set-up: dose 50 mg/kg; details: rat, in vivo
[14] = Tmax value at a dose of 100 mg/kg in male SD rats; type: ADME, organism-based; set-up: dose 100 mg/kg; details: rat, in vivo
Rattus norvegicus [15] = test: Effective dose against adjuvant-induced arthritis (AA) in SD rats upon peroral administration (QD); type: functional; details: po
[16] = Area under curve (0-24 hr) at a dose of 100 mg/kg in male SD rats; type: ADME, organism-based; set-up: time < 24 hr, dose 100 mg/kg; details: rat, in vivo

With C[S+]([O-])c1ccc(C2=C(c3cc(F)cc(F)c3)C(=O)C(C)(C)O2)cc1 (stereo not drawn) the inhibition in vivo at 0.1 mg/kg/day (Rattus norvegicus [1]) was 40%, the inhibition in vivo at 0.3 mg/kg/day (Rattus norvegicus [2]) was 76% and the ED50 (Rattus norvegicus [3]) was ~0.2 mg/kg/day.
Compound CC1(C)OC(c2ccc(S(C)(=O)=O)cc2)=C(c2cccc(Cl)c2)C1=O has an AUC(0-t) at 24 h [4] of 12700 ng·h/mL, a Tmax [5] of 1.5 h and a Cmax [6] of 1390 ng/mL.
With C[S+]([O-])c1ccc(C2=C(c3cccc(Cl)c3)C(=O)C(C)(C)O2)cc1 (stereo not drawn) the AUC(0-t) at 24 h [4] was 3610 ng·h/mL, the Tmax [5] was 0.5 h and the Cmax [6] was 460 ng/mL.
With CC1(C)OC(c2ccc(S(C)(=O)=O)cc2)=C(c2cc(F)cc(F)c2)C1=O the Cmax [7] was 130 ng/mL, the AUC(0-t) at 24 h [8] was 359000 ng·h/mL and the AUC(0-t) at 24 h [4] was 23100 ng·h/mL. It also gave a Tmax [5] of 2 h, an IC50 [9] of 13.2 µM and a Cmax [10] of 11700 ng/mL. For the same compound, the Cmax [11] was 24900 ng/mL, the IC50 [12] was 0.0529 µM and the Tmax [13] was 4.3 h. The Cmax [6] was 2580 ng/mL, the Tmax [14] was 5 h and the ED50 (Rattus norvegicus [15]) was 0.03 mg/kg/day. It also gave an AUC(0-t) at 24 h [16] of 487000 ng·h/mL.
COc1ccc2c(c1)c(CC(=O)O)c(C)n2C(=O)c1ccc(Cl)cc1 [INDOMETHACIN] gave an inhibition in vivo at 0.3 mg/kg/day (Rattus norvegicus [2]) of 60%.
